In the supplement of paper PMC8149375:

Tests used:
Details in all cases: treatment: drug alone; 5 days
769-P [1] = experiment: GI50, drug alone; higher = less potent
Method: (§1)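 Primary HTS: 8 RCC cell lines treated with 8 doses (up to 10 uM) of each library drug alone for 5 days; viability read by CellTiter-Glo and normalised to DMSO. GI50 was fitted with XLfit (4-parameter), AUC is the area under the dose-response curve, and minimum viability is the lowest fraction of DMSO viability across doses.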

786-O [2] = experiment: GI50, drug alone; higher = less potent
Method: as §1

A498 [3] = experiment: GI50, drug alone; higher = less potent
Method: as §1

ACHN [4] = experiment: GI50, drug alone; higher = less potent
Method: as §1

CAKI-1 [5] = experiment: GI50, drug alone; higher = less potent
Method: as §1

SN12C [6] = experiment: GI50, drug alone; higher = less potent
Method: as §1

TK-10 [7] = experiment: GI50, drug alone; higher = less potent
Method: as §1

UO-31 [8] = experiment: GI50, drug alone; higher = less potent
Method: as §1

769-P [9] = experiment: minimum viability across doses, drug alone, relative to DMSO (fraction); higher = less growth inhibition
Method: as §1

786-O [10] = experiment: as above
Method: as §1

A498 [11] = experiment: as above
Method: as §1

ACHN [12] = experiment: as above
Method: as §1

CAKI-1 [13] = experiment: as above
Method: as §1

SN12C [14] = experiment: as above
Method: as §1

TK-10 [15] = experiment: as above
Method: as §1

UO-31 [16] = experiment: as above
Method: as §1

769-P [17] = experiment: AUC of dose-response viability curve, drug alone (arbitrary (AUC of normalised viability)); higher = less growth inhibition
Method: as §1

786-O [18] = experiment: as above
Method: as §1

A498 [19] = experiment: as above
Method: as §1

ACHN [20] = experiment: as above
Method: as §1

CAKI-1 [21] = experiment: as above
Method: as §1

SN12C [22] = experiment: as above
Method: as §1

TK-10 [23] = experiment: as above
Method: as §1

UO-31 [24] = experiment: as above
Method: as §1

| SMILES | GI50, drug alone (786-O [2]) | GI50, drug alone (ACHN [4]) | GI50, drug alone (769-P [1]) | GI50, drug alone (A498 [3]) | GI50, drug alone (CAKI-1 [5]) | GI50, drug alone (SN12C [6]) | GI50, drug alone (TK-10 [7]) | GI50, drug alone (UO-31 [8]) | minimum viability across doses (769-P [9]) | minimum viability across doses (786-O [10]) | minimum viability across doses (A498 [11]) | minimum viability across doses (ACHN [12]) | minimum viability across doses (CAKI-1 [13]) | minimum viability across doses (SN12C [14]) | minimum viability across doses (TK-10 [15]) | minimum viability across doses (UO-31 [16]) | AUC of dose-response viability curve (769-P [17]) | AUC of dose-response viability curve (786-O [18]) | AUC of dose-response viability curve (A498 [19]) | AUC of dose-response viability curve (ACHN [20]) | AUC of dose-response viability curve (CAKI-1 [21]) | AUC of dose-response viability curve (SN12C [22]) | AUC of dose-response viability curve (TK-10 [23]) | AUC of dose-response viability curve (UO-31 [24]) |
| --- | --- | --- | --- | --- | --- | --- | --- | --- | --- | --- | --- | --- | --- | --- | --- | --- | --- | --- | --- | --- | --- | --- | --- | --- |
| O=C(NOCC1CC1)c1ccc(F)c(F)c1Nc1ccc(I)cc1Cl | 4.38 µM | 3.51 µM | 5.01 µM | > 10 µM | 4.19 µM | > 10 µM | 4.99 µM | > 10 µM | 0.233 | 0.41 | 0.593 | 0.263 | 0.23 | 0.467 | 0.362 | 0.779 | 2.96 | 2.98 | 3.44 | 2.78 | 3.04 | 2.86 | 2.68 | 4.14 |
| Nc1nc(NCCNc2ncc(-n3ccnc3)c(-c3ccc(Cl)cc3Cl)n2)ccc1[N+](=O)[O-] | 1.24 µM | 3.93 µM | 2.72 µM | > 10 µM | 7.77 µM | 9.82 µM | 1.92 µM | 1.65 µM | 0.0343 | 0.013 | 0.701 | 0.0311 | 0.211 | 0.455 | 0.0728 | 0.0119 | 2.89 | 2.36 | 4.54 | 3.06 | 3.69 | 3.5 | 2.43 | 3.59 |

Second part, led by results:

| GI50, drug alone (786-O [2]) | GI50, drug alone (ACHN [4]) | SMILES | GI50, drug alone (769-P [1]) | GI50, drug alone (A498 [3]) | GI50, drug alone (CAKI-1 [5]) | GI50, drug alone (SN12C [6]) | GI50, drug alone (TK-10 [7]) | GI50, drug alone (UO-31 [8]) | minimum viability across doses (769-P [9]) | minimum viability across doses (786-O [10]) | minimum viability across doses (A498 [11]) | minimum viability across doses (ACHN [12]) | minimum viability across doses (CAKI-1 [13]) | minimum viability across doses (SN12C [14]) | minimum viability across doses (TK-10 [15]) | minimum viability across doses (UO-31 [16]) | AUC of dose-response viability curve (769-P [17]) | AUC of dose-response viability curve (786-O [18]) | AUC of dose-response viability curve (A498 [19]) | AUC of dose-response viability curve (ACHN [20]) | AUC of dose-response viability curve (CAKI-1 [21]) | AUC of dose-response viability curve (SN12C [22]) | AUC of dose-response viability curve (TK-10 [23]) | AUC of dose-response viability curve (UO-31 [24]) |
| --- | --- | --- | --- | --- | --- | --- | --- | --- | --- | --- | --- | --- | --- | --- | --- | --- | --- | --- | --- | --- | --- | --- | --- | --- |
| 0.451 µM | 0.732 µM | Cc1cc(CN2CCN(c3c(Br)cnc4[nH]c(-c5ccc(N6CCN(C)CC6)cc5)nc34)CC2)no1 | 0.858 µM | 3.35 µM | 0.885 µM | 2.42 µM | 2.84 µM | 8.57 µM | 0.0185 | 0.00301 | 0.0157 | 0.00704 | 0.00778 | 0.0135 | 0.177 | 0.0211 | 2.44 | 2.01 | 3.57 | 2.36 | 2.6 | 2.74 | 2.61 | 4.13 |
| 3.87 µM | 0.381 µM | CC(C)(C)c1nc(-c2cccc(NS(=O)(=O)c3c(F)cccc3F)c2F)c(-c2ccnc(N)n2)s1 | > 10 µM | > 10 µM | 0.567 µM | > 10 µM | 5.14 µM | > 10 µM | 0.842 | 0.463 | 0.91 | 0.115 | 0.163 | 0.942 | 0.447 | 0.75 | 3.52 | 2.47 | 4.27 | 2.19 | 2.67 | 3.69 | 2.54 | 4.68 |
| > 10 µM | 0.472 µM | C#Cc1cccc(Nc2ncnc3cc(OCCOC)c(OCCO)cc23)c1 | 3.48 µM | > 10 µM | 2.84 µM | > 10 µM | 2.61 µM | > 10 µM | 0.396 | 0.531 | 0.994 | 0.097 | 0.159 | 0.645 | 0.402 | 1.05 | 2.71 | 2.98 | 4.38 | 2.13 | 2.93 | 3.24 | 2.39 | 4.22 |
